For nine compounds, IC50 and Ki results are on record in ChEMBL document CHEMBL1909046, “DrugMatrix in vitro pharmacology data”.

A short description of assay [1]: DRUGMATRIX: Platelet-Derived Growth Factor (PDGF) radioligand binding (ligand: [125I] PDGF). It is filed as cell-based. The note with it: nih3t3; Not Active = under 50% inhibition at 10 µM.
The nature of assay [2]: DRUGMATRIX: GABAA, Chloride Channel, TBOB radioligand binding (ligand: [3H] TBOB). Format: cell membranes, Rattus norvegicus, Wistar, Cerebral cortex, Membrane. The following applies: Not Active = under 50% inhibition at 10 µM.
Assay [3] has as its target Sodium-dependent dopamine transporter (Homo sapiens, UniProt Q01959). The assay is described as follows: DRUGMATRIX: Dopamine Transporter radioligand binding (ligand: [125I] RTI-55). The note with it: cho-k1; Not Active = under 50% inhibition at 10 µM. It is filed as cell membranes, CHO-K1, Membrane.
Assay [4] addresses 5-hydroxytryptamine receptor 2B (Homo sapiens, UniProt P41595). Format: cell membranes, CHO-K1, Membrane. The note with it: cho-k1.
In the next assay the target is T1, Adenosine receptor A3 (Homo sapiens, UniProt P0DMS8).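 Also: radioligand binding assay with AB-MECA serving as the labeled ligand; in other assays of this panel Not Active means under 50% inhibition at 10 µM.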
T1 sequence (P0DMS8 whole entry): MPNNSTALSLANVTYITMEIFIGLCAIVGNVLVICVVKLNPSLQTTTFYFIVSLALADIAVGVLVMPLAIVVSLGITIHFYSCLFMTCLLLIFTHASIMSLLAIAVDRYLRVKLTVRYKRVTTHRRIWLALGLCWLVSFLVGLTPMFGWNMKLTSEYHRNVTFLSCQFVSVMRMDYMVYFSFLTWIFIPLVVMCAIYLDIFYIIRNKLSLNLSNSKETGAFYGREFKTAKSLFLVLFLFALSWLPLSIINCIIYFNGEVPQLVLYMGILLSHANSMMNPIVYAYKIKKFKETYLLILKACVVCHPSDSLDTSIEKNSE
It is filed as cell membranes, CHO-K1, Membrane. The note with it: cho-k1.

The nature of assay [5]: DRUGMATRIX: Phosphodiesterase PDE4 enzyme inhibition (substrate: [3H]cAMP + cAMP). The following applies: u-937, Not Active = under 50% inhibition at 10 µM.

Sequence of Sodium-dependent dopamine transporter (Q01959 whole entry): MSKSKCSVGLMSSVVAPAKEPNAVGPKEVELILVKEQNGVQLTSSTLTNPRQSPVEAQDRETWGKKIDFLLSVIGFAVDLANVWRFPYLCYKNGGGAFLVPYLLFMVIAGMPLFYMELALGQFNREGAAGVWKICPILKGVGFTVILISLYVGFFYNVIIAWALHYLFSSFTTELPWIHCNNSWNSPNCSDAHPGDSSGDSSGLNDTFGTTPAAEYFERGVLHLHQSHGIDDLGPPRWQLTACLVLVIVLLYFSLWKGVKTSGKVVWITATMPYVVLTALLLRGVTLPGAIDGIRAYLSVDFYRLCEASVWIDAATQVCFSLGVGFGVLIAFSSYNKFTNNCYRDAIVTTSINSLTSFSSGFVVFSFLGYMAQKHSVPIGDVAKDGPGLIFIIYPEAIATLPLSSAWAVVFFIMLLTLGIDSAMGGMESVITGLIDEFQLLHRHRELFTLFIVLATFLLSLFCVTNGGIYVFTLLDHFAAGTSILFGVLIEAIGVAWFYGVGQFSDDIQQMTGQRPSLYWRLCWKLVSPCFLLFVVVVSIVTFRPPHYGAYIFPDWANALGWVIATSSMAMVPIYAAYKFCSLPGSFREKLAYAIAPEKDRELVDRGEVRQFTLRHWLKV
Sequence of 5-hydroxytryptamine receptor 2B (P41595 whole entry): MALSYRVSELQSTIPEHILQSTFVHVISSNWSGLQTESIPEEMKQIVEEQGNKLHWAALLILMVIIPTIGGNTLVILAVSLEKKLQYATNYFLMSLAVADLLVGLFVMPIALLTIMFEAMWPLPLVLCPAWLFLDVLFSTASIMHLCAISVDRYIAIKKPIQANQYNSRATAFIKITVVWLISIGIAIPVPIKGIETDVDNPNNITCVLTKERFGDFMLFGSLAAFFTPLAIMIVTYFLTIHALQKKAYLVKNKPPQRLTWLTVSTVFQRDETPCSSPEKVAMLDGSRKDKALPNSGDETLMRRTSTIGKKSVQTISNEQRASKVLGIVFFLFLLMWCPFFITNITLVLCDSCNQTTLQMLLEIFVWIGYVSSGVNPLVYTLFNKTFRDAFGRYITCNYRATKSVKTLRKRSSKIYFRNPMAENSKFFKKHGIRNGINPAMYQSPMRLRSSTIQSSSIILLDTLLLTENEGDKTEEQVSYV

What is called IC50 is the concentration that gives 50% inhibition. For `C[C@]12C/C(=C/O)C(=O)C[C@@H]1CC[C@@H]1[C@@H]2CC[C@@]2(C)[C@H]1CC[C@]2(C)O` [OXYMETHOLONE], the IC50 result (in assay [1]; in assay [2]; in assay [3]; in assay [4]; against Adenosine receptor A3; in assay [5]) was “Not Active” in each case. Moreover, the Ki result in assay [1], in assay [2] and in assay [5] was “Not Active” throughout.

For the compound `CC(C)(CO)C(O)C(=O)NCCCO` (stereo not drawn) [PANTHENOL], the IC50 entry (in assay [1]; in assay [2]; in assay [3]; in assay [4]; against Adenosine receptor A3; in assay [5]) was “Not Active” each time. Also, the Ki result in assay [1], in assay [2] and in assay [5] was “Not Active” throughout.

As for `COc1ccc(Cc2nccc3cc(OC)c(OC)cc23)cc1OC` [PAPAVERINE], the IC50 entry in assay [1] is “Not Active”; in assay [2], “Not Active”; in assay [3], “Not Active”; in assay [4], “Not Active”; at Adenosine receptor A3, “Not Active”; in assay [5] (read-out: IC50), 817 nM. Also, the Ki result in assay [1] and in assay [2] was “Not Active” each time.

Turning to `OCCN1CCN(CCCN2c3ccccc3Sc3ccc(Cl)cc32)CC1` [PERPHENAZINE], the IC50 entry (in assay [1]; in assay [2]; in assay [3]; in assay [4]; at Adenosine receptor A3; in assay [5]) was “Not Active” each time. Further, the Ki result in assay [1], in assay [2] and in assay [5] was “Not Active” in each case.

As to `CCCCC1C(=O)N(c2ccccc2)N(c2ccccc2)C1=O` [PHENYLBUTAZONE], the IC50 result (in assay [1]; in assay [2]; in assay [3]; in assay [4]; on Adenosine receptor A3; in assay [5]) was “Not Active” each time. Moreover, the Ki entry in assay [1], in assay [2] and in assay [5] was “Not Active” each time.

For the compound `Cc1cccc(Nc2cc(Cl)nc(SCC(=O)O)n2)c1C` [PIRINIXIC ACID], the half-maximal inhibitory concentration (IC50) entry (in assay [1]; in assay [2]; in assay [3]; in assay [4]; at Adenosine receptor A3; in assay [5]) was “Not Active” each time. Besides, the Ki result in assay [1], in assay [2] and in assay [5] was “Not Active” each time.

Regarding `CC[C@H](C)C(=O)O[C@H]1C[C@H](O)C=C2C=C[C@H](C)[C@H](CC[C@@H](O)C[C@@H](O)CC(=O)O)[C@H]21` [PRAVASTATIN], the IC50 result (in assay [1]; in assay [2]; in assay [3]; in assay [4]; against Adenosine receptor A3; in assay [5]) was “Not Active” throughout. In addition, the Ki result in assay [1], in assay [2] and in assay [5] was “Not Active” in each case.

Regarding `CC(C)(Sc1cc(C(C)(C)C)c(O)c(C(C)(C)C)c1)Sc1cc(C(C)(C)C)c(O)c(C(C)(C)C)c1` [PROBUCOL], the IC50 result (in assay [1]; in assay [2]; in assay [3]; in assay [4]; against Adenosine receptor A3; in assay [5]) was “Not Active” in each case. The Ki entry in assay [1], in assay [2] and in assay [5] was “Not Active” each time.

With COBALT(II) ACETYLACETONATE, the IC50 entry (in assay [1]; in assay [2]; in assay [3]; in assay [4]; at Adenosine receptor A3; in assay [5]) was “Not Active” each time. Further, the Ki entry (in assay [1]; in assay [2]; in assay [3]; in assay [4]; on Adenosine receptor A3; in assay [5]) was “Not Active” each time.
